According to patent publication US20030188344A1 (priority 2000, published 2003):
“Also recorded” adds a separate entry of the source.

What was measured:
[1] = system: vir gene expression in wild-type strain A348; assay: vir induction assay, β-galactosidase reporter, wild-type strain; assay type: cell-based, A. tumefaciens; conditions: wild-type A348/pSW209
Description: (§1) vir Induction Assay. A. tumefaciens strains were grown overnight at 27° C. to an optical density of about 0.3-0.6 at 600 nm (OD600) in LB medium supplemented win appropriate antibiotics. Cells were then pelleted by centrifugation and resuspended to an OD600 of 0 1 per ml in sterilized induction medium (ABIM. pH 5.5) supplemented with either 1% glucose or 1% glycerol with or without 0.1% arabinose (w/v). The verious phenolic compounds tested were dissolved in a minimal amount of DMSO in water as mM stocks, and diluted with ABIM to the desired concentration (final DMSO concentration was no greater than 0.1%). The bacteria were incubated with at 28° C. for 8-16 hours and subsequently assayed for β-galactosidase activity by the method of Miller, 1972. ED50 values for the inducers evaluated were estimated from such dose response plots. Each assay value reported is the mean of three replicates; error bar indicates one standard deviation from the mean. Data are representative of three similar independent experiments.

[2] = system: vir gene expression in hypersensitive mutants (AB140, AB147); assay: vir induction assay, β-galactosidase reporter, phenol hypersensitive mutants; assay type: cell-based, A. tumefaciens; conditions: for vir inducing activity / hypersensitivity in mutants: hypersensitive mutants, e.g. AB140, versus wild-type
Description: as §1
To ensure that the mutants hypersensitive to AS were a result of a change in the vir gene induction pathway rather than a mutation in the reporter plasmid pAC2, other methods to analyze vir gene induction and the virulence response were investigated. First, all nine mutants were transformed with pSW209 carrying a virB::lacZ reporter construct. The β-galactosidase activities of all strains were hypersensitive in an AS dose-response study. The observed changes are not due to some artifact of the reporter plasmids as the expression of VirB10, one of the proteins of the virB operon on its Ti plasmid, in cells of AB140 was detectable after induction with 0.3 μM AS. Wild-type cells required 1 μM AS to produce detectable VirB10. Thus, the mutants are hypersensitive to AS when assaying either the virB^P/nptII reporter, the virB::lacZ reporter, or directly assaying expression of VirB10 from the native viral promoter on the Ti plasmid.

vir gene expression = vir gene expression inhibition, β-galactosidase (lacZ under vir promoter); assay type: cell-based, A. tumefaciens
Description: Vir Induction Assay. A. tumefaciens strains were grown overnight at 27° C. to an OD of 0.3-0.6 in LB medium supplemented with appropriate antibiotics. Cells were then pelleted by centrifugation and resuspended to an OD of 0.1 per ml in sterilized induction medium (ABIM, pH 5.5) supplemented with either 1% glucose or 1% glycerol. The various inducer and Inhibitor compounds tested were dissolved in a minimal amount of DMSO in water as mM stocks, and diluted with ABIM to the desired concentration (final DMSO concentration was no greater than 0.1%). The bacteria were incubated with at 28° C. for 8-16 hr and subsequently assayed for β-galactosidase activity by the method of Miller (1986). IC50 values for the Inhibitors evaluated were estimated from such dose response plots. Each assay value reported is the mean of three replicates; error bar indicates one standard deviation from the mean. Data are representative of three similar independent studies.
The capacity of 1 to inhibit vir gene expression was tested by monitoring β-galactosidase activity in an A. tumefaciens strain carrying wild-type vir induction genes and a lacZ gene under the control of a vir promoter (Hess et al., 1991). […] A more precise test for specificity was available via the utilization of a plasmid containing a virA gene, the putative AS receptor, which contitutively expressed the vir genes in the absence of AS. […] Therefore, the inhibition by 1 occurs upstrean, of VirA activation.

[3] = system: A. tumefaciens strain A348/pAC2 and AB140/pAC2; assay: kanamycin resistant growth with pAC2 (virB promoter/nptII); assay type: cell-based; conditions: for kanamycin resistant growth of AB140 compared with wild-type (inducer sensitivity): liquid medium, AB140/pAC2 vs A348/pAC2 (FIG. 9); for survival on induction plates plus kanamycin: A348/pAC2, 40 μg/ml kanamycin
Description: Mutant Selection. […] Phenolic hypersensitive mutants were selected as follows. Individual colonies of A348/pAC2 were grown overnight in LB broth plus spectinomycin, and the progeny from each colony kept separate to ensure that each mutation was an individual event, not part of a clonal population. The bacteria were subsequently washed in ABIM medium, resuspended to an OD600 of approximately 0.1 and induced overnight in ABIM media plus 100 μM AS. The next day the cells had grown to an approximate OD600 of 1.0 and 2×10^5 to 2×10^6 bacteria were plated onto plates confining ABIM medium containing 10 μM AS and 40 μg/ml kanamycin. Colonies that grew on this selection medium were subsequently assayed for growth on plates containing kanamycin but no phenolic. Colonies that grew under these conditions are constitutive for kanamycin resistance and were not characterized further, while colonies that couldn't survive in this screen were characterized further.
The kanamycin resistance test of selected colonies in response to different doses of phenol was done in the following manner: after one night of induction in ABIM over a range of inducer concentrations, as described above, the bacteria were washed and subcultured into ABIM at a starting OD600 of approximately 0.1. The ABIM included phenolics at a range of concentrations between 0.1-1000 μM. At each concentration of inducer three cultures have kanamycin at a concentration of 20 μg/mL, while one culture has no kanamycin. After overnight culture the OD600 is determined and kanamycin resistant growth as a percentage of control is determined using the following calculation: [formula]

occ regulon = occ regulon induction (specificity control); assay type: cell-based, A. tumefaciens; conditions: same plasmid; data not shown
physchem = assay type: physicochemical; conditions: buffer
Description: Curiously, 1 appears the most hydrolytically labile of this class of structures, with a measured t1/2<4 hr at pH 5.5, and […] at pH 7. […] Moreover, from estimates of the surface area per seedling, the concentration of 1 around the radicle of one-week-old maize seedlings should be between […] and 10 mM, depending on whether a 10 μ or a 100 μ volume element is used to define the surface hydration. […] This inhibitory zone readily explains the observed difficulty transforming this organ with the bacterium.

VirB10 expression = assay: VirB10 immunoblot; assay type: cell-based, A. tumefaciens
Description: Immunoblot. Cultures of different strains were induced overnight in ABIM containing 1% glycerol and 0.1% arabinose and varying phenolic concentrations. Samples from each culture, containing an equivalent OD600, were denatured by boiling in sample buffer for 3-10 minutes, and 10 μL from each sample was loaded onto 10% acrylamide gels and separated via SDSpolyacrylamide gel electrophoresis (PAGE). Proteins were transferred from the acrylamide gel to nitrocellulose purchased from Schleicher and Schell (Keene, N. H.) by electrotransfer. VirB 10 expression was examined using immunoblot procedures and antibodies described in Beaupre et al., 1997.

[4] = system: leaf explants of Nicotiana tabacum cv Havana 425; assay: tobacco leaf tumor (virulence) assay
Description: Virulence Assays The capacity of various strains of A. tumefaciens to induce tumors on leaf explants of Nicotiana tabacum cv Havana 425 was tested as described previously. Banta et al., 1994.
In this assay, bacteria and leaf explants are co-cultivated for two days at varying levels of AS and then transferred to antibiotic containing medium that stops bacterial growth but allows plant tumor growth. Banta et al., 1994. In the case of wild-type strain A348, some tumor formation is observed on the leaf explants co-cultivated in the absence of AS in the co-cultivation, as expected because of xenognostic phenols released from the wounded cells (FIG. 10). […] Importantly, the maximum number of tumors formed by both the wild-type strain and AB140 was approximately the same, consistent with the observation that AB140's hypersensitivity is not a result of simple overexpression of the vir genes.

[5] = system: VirA expression by native PvirA; conditions: with AS induction; cited from earlier work

Compound: COc1cc([C@@H]2C[C@H]2CO)ccc1O (relative stereo) [(+)-trans-CP, trans-[3-(4-Hydroxy-3-methoxy-phenyl)-cyclopropyl]methanol]
- vir inducing activity (virB::lacZ β-galactosidase) [1]: virtually all the activity of the trans racemate; also recorded: active
- vir inducing activity / hypersensitivity in mutants [2]: all the inducing activity of the racemate

Compound: COc1cc2c(cc1O)CCC2=O [Z-indanone, 5-hydroxy-6-methoxy-1-indanone]
- vir inducing activity (virB::lacZ β-galactosidase) [1]: equivalent activity

Compound: COc1c(O)ccc2c1CCC2=O [E-indanone, 5-hydroxy-4-methoxy-1-indanone]
- vir inducing activity (virB::lacZ β-galactosidase) [1]: equivalent activity
- vir inducing activity / hypersensitivity in mutants [2]: hypersensitive

Compound: COc1ccc2[nH]c(=O)oc2c1 [6-methoxy-2H-benzoxazolin-2(3H)-one]
- activity of decomposition product (vir gene expression; under the assay conditions): inactive

Compound: COc1cc(C2CC2CO)ccc1O (stereo not drawn) [cis-CP]
- vir inducing activity (virB::lacZ β-galactosidase) [1]: equivalent activity

Compound: COc1cc2c(c(OC)c1O)CCC2=O [D-indanone, 5-hydroxy-4,6-dimethoxyindanone]
- vir inducing activity (virB::lacZ β-galactosidase) [1]: little changed
- vir inducing activity / hypersensitivity in mutants [2]: hypersensitive

Compound: COc1cc(C(C)=O)ccc1O [AV, acetovallinone]
- kanamycin resistant growth of AB140 compared with wild-type (inducer sensitivity) [3]: not hypersensitive

Compound: COC(=O)/C=C/c1cc(OC)c2c(c1)C(C(=O)OC)C(c1ccc(O)c(OC)c1)O2 [(2R,3R)-(−)-trans-DDF, trans-dehydroferulate dimethylester, reference compound]
- vir inducing activity (virB::lacZ β-galactosidase) [1]: all the inducing activity of the racemic mixture
- vir inducing activity (virB::lacZ β-galactosidase) ([1]; listed as (−)-trans-DDF): active

Compound: COc1ccc2c(c1)OC(O)C(=O)N2OC (centres unmarked) [compound 1]
- actual IC50 (vir gene expression; based on decomposition rates during the 8 hr assay period): nanomolar range
- inhibition of vir gene expression (β-galactosidase activity) (vir gene expression; expression induced by 100 uM acetosyringone, wild-type vir induction genes): strongly inhibits
- effect on constitutively activated VirA strain (FIG. 2) (vir gene expression; virA G665D expressing vir genes in the absence of AS): functions independently
- effect on induction of the occ regulon (occ regulon): unaffected
- half-life (physchem; pH 5.5): < 240 min
- half-life (physchem; pH 7): ~10 min

Compound: COc1cc(C(C)=O)cc(OC)c1O [AS, Acetosyringone]
- sensitivity to AS compared with wild-type strain A348 ([2]; AB140, 0.1% arabinose present in induction medium): increased
- AS concentration for response compared with wild-type ([2]; AB147 class, absence of arabinose): half-log lower concentration
- vir inducing activity / hypersensitivity in mutants [2]: hypersensitive
- survival on induction plates plus kanamycin ([3]; 30 μM AS): killed
- survival on induction plates plus kanamycin ([3]; 100 μM AS): survive
- kanamycin resistant growth of AB140 compared with wild-type (inducer sensitivity) [3]: one-half log lower concentration
- AS concentration giving detectable VirB10 (VirB10 expression; cells of AB140): 0.3 µM
- AS concentration required to produce detectable VirB10 (VirB10 expression; wild-type cells): 1 µM
- AS concentration for maximal capacity to induce tumors, relative to wild-type ([4]; hypersensitive mutant AB140 (FIG. 10)): log order lower concentration
- number of tumors formed per infected leaf explant ([4]; wild-type strain A348, increasing phenol in co-cultivation medium (FIG. 10)): significantly increased
- induction of VirA expression by native PvirA [5]: ~8 fold
